# ChEMBL document CHEMBL6087427, “Discovery of novel cyclopentane carboxylic acids as potent and selective inhibitors of NaV1.7” (Bioorg Med Chem Lett, 2025)
# Assays:
# [1] = molecular target: T1, Sodium channel protein type 9 subunit alpha (Homo sapiens, UniProt Q15858); experiment: Displacement of [3H]GX-545 from Nav1.7 VSD4 (unknown origin)
# Target sequence in this assay (Q15858 whole entry): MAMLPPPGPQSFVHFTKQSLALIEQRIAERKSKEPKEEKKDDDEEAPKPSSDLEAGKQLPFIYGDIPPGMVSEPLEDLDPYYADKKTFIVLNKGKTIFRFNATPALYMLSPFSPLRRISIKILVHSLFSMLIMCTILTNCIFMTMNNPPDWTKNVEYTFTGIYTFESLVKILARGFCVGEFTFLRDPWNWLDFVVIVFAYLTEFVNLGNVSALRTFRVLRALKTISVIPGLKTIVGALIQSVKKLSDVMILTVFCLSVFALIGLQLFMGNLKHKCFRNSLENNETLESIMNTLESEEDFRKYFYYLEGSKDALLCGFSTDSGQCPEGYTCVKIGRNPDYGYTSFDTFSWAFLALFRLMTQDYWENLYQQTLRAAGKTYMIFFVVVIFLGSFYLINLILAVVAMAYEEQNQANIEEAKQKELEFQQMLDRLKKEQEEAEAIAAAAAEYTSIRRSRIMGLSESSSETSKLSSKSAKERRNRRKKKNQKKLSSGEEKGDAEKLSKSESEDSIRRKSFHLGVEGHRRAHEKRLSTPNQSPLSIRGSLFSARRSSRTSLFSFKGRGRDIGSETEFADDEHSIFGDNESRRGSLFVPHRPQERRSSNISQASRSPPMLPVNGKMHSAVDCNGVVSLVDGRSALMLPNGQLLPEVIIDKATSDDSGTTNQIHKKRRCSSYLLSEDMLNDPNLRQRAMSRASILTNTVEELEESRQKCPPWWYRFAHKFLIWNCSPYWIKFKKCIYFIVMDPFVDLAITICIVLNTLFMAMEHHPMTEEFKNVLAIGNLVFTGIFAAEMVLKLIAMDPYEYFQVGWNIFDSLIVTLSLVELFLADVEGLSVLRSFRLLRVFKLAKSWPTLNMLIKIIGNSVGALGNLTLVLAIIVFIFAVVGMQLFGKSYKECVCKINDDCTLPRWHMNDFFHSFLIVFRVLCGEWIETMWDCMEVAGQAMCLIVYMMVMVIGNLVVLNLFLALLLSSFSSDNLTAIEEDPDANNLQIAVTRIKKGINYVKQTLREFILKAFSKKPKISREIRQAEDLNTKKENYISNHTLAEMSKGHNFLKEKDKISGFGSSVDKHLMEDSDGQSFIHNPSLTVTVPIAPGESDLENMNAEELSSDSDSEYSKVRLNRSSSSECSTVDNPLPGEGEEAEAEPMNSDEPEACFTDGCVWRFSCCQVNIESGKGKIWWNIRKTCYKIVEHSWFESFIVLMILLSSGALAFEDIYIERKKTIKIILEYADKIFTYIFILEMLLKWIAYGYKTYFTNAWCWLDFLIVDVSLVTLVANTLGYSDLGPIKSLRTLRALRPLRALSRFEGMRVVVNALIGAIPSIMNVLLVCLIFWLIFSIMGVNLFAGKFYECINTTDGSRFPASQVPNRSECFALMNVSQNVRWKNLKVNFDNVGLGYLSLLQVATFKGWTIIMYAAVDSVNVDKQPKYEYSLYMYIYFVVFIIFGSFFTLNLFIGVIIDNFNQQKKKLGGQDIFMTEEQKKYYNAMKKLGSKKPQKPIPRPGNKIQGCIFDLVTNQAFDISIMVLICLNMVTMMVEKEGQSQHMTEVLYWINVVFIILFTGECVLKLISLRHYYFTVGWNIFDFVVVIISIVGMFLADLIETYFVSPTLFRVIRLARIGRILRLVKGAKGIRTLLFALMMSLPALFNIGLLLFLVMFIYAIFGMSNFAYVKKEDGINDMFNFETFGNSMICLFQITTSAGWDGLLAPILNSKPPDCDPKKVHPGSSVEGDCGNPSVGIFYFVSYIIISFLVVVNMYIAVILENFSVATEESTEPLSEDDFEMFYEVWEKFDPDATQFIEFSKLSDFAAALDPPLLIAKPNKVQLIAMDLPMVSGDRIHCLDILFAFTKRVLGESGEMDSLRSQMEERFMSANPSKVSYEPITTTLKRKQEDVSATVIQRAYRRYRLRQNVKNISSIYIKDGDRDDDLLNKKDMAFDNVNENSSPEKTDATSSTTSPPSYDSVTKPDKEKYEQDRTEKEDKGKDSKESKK
# [2] = molecular target: T1, Sodium channel protein type 9 subunit alpha; experiment: Inhibition of human Nav1.7 by patch clamp electrophysiology
# Target sequence in this assay (Q15858 whole entry): as above
# [3] = molecular target: Sodium channel protein type 5 subunit alpha (Homo sapiens, UniProt Q14524); experiment: Inhibition of human Nav1.5 by patch clamp electrophysiology
# Chain of Sodium channel protein type 5 subunit alpha (Q14524 whole entry): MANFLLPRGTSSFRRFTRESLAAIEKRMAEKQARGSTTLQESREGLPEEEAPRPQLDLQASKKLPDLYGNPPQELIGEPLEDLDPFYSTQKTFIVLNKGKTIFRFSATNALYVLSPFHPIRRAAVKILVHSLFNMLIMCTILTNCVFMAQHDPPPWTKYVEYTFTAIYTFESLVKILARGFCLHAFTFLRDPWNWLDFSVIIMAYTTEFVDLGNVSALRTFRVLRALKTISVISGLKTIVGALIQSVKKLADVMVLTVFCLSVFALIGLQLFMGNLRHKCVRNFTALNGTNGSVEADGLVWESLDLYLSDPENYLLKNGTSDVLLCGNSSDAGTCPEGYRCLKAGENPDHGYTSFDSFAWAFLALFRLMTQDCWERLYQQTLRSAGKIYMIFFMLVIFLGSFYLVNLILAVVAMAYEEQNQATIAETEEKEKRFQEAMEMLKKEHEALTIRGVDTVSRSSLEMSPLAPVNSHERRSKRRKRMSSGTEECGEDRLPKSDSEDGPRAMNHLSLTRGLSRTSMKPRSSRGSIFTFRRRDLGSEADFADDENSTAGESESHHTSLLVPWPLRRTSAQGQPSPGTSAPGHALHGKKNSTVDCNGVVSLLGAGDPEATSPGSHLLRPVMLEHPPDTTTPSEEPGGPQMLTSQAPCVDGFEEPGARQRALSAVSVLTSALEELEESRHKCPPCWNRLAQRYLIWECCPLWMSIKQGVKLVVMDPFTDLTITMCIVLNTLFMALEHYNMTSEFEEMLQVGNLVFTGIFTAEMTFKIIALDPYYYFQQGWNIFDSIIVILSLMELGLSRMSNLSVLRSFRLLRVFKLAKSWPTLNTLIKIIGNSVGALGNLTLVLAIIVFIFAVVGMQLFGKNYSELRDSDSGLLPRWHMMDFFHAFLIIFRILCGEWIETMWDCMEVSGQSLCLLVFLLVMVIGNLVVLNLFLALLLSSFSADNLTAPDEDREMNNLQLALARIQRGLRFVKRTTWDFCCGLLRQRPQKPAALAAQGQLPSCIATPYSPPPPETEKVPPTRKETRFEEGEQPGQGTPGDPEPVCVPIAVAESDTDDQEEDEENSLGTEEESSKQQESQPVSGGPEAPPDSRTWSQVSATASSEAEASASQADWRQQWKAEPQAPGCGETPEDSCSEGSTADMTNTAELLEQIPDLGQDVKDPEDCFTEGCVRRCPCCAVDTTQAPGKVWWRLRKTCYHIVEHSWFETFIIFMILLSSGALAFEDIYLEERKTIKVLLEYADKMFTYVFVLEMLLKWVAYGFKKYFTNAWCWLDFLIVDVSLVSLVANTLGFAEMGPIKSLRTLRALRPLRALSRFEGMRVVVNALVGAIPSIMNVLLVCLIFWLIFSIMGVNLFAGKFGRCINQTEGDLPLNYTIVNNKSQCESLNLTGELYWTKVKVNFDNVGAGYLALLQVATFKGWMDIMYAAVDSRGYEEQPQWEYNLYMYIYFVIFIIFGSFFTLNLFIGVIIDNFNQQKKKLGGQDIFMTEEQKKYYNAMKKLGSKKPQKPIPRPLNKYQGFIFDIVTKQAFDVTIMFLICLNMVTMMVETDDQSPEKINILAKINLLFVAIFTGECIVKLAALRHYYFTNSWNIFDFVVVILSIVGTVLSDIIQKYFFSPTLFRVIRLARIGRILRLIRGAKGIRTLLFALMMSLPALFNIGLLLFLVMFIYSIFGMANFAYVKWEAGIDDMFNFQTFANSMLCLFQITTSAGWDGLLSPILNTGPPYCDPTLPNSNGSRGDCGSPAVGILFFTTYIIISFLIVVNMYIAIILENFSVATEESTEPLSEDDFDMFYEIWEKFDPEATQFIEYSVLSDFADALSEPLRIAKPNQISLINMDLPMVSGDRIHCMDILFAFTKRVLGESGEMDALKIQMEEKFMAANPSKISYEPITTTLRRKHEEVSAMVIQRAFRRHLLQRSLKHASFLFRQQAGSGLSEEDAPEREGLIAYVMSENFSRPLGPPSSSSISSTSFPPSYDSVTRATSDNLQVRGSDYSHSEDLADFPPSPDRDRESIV
# [4] = molecular target: T1, Sodium channel protein type 9 subunit alpha; experiment: Inhibition of human Nav1.7 by sodium flux assay
# Target sequence in this assay (Q15858 whole entry): as the sequence (Q15858 whole entry) above
# [5] = Metabolic stability in human liver microsomes assessed as hepatic clearance; format: ADME, Microsome
# [6] = Metabolic stability in mouse liver microsomes assessed as hepatic clearance; format: ADME, Microsome
# [7] = AUC in mouse at 3 mg/kg, po; format: ADME, organism-based; details: in vivo
# [8] = molecular target: Sodium channel protein type 1 subunit alpha (Homo sapiens, UniProt P35498); experiment: Inhibition of human Nav1.1 by patch clamp electrophysiology
# [9] = molecular target: Sodium channel protein type 2 subunit alpha (Homo sapiens, UniProt Q99250); experiment: Inhibition of human Nav1.2 by patch clamp electrophysiology
# [10] = molecular target: Sodium channel protein type 8 subunit alpha (Homo sapiens, UniProt Q9UQD0); experiment: Inhibition of human Nav1.6 by patch clamp electrophysiology
# [11] = Metabolic stability in human hepatocytes assessed as hepatic clearance; format: ADME, cell-based, Hepatocyte
# [12] = Metabolic stability in mouse hepatocytes assessed as hepatic clearance; format: ADME, cell-based, Hepatocyte
# [13] = Apparent permeability across apical to basolateral side in MDCK cells; format: ADME, cell-based, Canis lupus familiaris; details: dog
# MDR1 (P-gp) = experiment: Efflux ratio in MDCK-MDR1 cells; format: ADME, cell-based, Canis lupus familiaris; details: dog
# BCRP = experiment: Efflux ratio in MDCK-BCRP cells; format: ADME, cell-based, Canis lupus familiaris; details: dog
# [14] = Plasma protein binding in human; format: ADME, cell-free; details: read-out: PPB
# [15] = Plasma protein binding in mouse; format: ADME, cell-free; details: read-out: PPB
# Cytochrome P450 1A2 = molecular target: T2, Cytochrome P450 1A2 (Homo sapiens, UniProt P05177); experiment: Inhibition of CYP1A2 (unknown origin); format: ADME
# T2 sequence (P05177 whole entry): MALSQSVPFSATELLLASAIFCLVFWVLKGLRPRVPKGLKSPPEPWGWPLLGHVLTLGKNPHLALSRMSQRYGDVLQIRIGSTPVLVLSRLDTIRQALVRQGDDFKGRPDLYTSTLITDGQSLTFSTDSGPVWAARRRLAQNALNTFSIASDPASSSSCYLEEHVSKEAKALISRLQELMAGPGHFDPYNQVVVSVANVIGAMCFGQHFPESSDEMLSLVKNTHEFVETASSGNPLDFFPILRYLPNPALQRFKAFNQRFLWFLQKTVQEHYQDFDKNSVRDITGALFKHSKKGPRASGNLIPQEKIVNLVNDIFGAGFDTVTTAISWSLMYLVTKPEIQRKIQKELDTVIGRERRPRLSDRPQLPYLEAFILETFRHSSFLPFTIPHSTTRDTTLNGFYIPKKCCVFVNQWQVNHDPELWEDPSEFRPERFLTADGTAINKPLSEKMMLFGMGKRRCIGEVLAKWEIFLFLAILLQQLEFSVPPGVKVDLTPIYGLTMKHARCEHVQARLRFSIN
# Cytochrome P450 2C19 = Cytochrome P450 2C19 (Homo sapiens, UniProt P33261); experiment: Inhibition of CYP2C19 (unknown origin); format: ADME
# Cytochrome P450 2C9 = Cytochrome P450 2C9 (Homo sapiens, UniProt P11712); experiment: Inhibition of CYP2C9 (unknown origin); format: ADME
# Cytochrome P450 2D6 = Cytochrome P450 2D6 (Homo sapiens, UniProt P10635); experiment: Inhibition of CYP2D6 (unknown origin); format: ADME
# Chain of Cytochrome P450 2D6 (P10635 whole entry): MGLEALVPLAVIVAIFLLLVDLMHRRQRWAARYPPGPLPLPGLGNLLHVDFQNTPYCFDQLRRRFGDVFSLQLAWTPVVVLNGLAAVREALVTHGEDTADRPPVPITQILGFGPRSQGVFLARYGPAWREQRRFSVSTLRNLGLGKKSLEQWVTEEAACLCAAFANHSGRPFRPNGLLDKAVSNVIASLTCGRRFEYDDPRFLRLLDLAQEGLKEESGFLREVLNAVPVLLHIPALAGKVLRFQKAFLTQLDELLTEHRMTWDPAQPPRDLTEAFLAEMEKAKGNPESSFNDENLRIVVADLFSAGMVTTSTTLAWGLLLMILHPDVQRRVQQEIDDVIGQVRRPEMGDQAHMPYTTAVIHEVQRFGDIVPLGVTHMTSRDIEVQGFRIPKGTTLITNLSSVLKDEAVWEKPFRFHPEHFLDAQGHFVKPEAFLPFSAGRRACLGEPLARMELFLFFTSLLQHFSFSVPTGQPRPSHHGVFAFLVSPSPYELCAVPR
# Cytochrome P450 3A4 = Cytochrome P450 3A4 (Homo sapiens, UniProt P08684); experiment: Inhibition of CYP3A4 (unknown origin); format: ADME
# Chain of Cytochrome P450 3A4 (P08684 whole entry): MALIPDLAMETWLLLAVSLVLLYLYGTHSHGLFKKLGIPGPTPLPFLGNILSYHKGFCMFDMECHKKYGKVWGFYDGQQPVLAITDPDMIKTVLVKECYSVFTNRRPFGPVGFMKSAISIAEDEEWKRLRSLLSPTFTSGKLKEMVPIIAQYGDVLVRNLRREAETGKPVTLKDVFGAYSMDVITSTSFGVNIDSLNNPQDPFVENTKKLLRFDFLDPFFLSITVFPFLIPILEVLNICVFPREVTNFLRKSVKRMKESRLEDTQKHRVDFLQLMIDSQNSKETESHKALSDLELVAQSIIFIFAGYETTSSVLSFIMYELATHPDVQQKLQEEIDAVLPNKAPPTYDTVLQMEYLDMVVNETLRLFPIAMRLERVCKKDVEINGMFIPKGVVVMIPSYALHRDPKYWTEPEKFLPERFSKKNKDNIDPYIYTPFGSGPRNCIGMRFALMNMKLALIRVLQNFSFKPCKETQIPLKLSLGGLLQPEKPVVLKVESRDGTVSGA
# [16] = Kinetic solubility of compound; format: physicochemical; details: read-out: Kinetic_solubility
# [17] = Volume of distribution at steady state in mouse at 1 mg/kg, iv; format: ADME, organism-based; details: in vivo, read-out: Vdss
# [18] = Half life in mouse at 1 mg/kg, iv; format: ADME, organism-based; details: in vivo
# [19] = Cmax in mouse at 3 mg/kg, po; format: ADME, organism-based; details: in vivo
# [20] = Half life in mouse at 3 mg/kg, po; format: ADME, organism-based; details: in vivo
# [21] = Oral bioavailability in mouse at 3 mg/kg; format: ADME, organism-based; details: in vivo
# Mus musculus [22] = experiment: Analgesic activity in aconitine-induced nociception in IEM transgenic FVB mouse model assessed as reduction in pain response at 3 mg/kg, po pretreated for 2 hrs followed by aconitine administration measured for 30 mins post-aconitine dose relative to control; format: functional; design: scale not given: the % may be the effect or the level left; details: time 2.5 hrs
# Mus musculus [23] = experiment: Analgesic activity in aconitine-induced nociception in IEM transgenic FVB mouse model assessed as reduction in pain response at 10 mg/kg, po pretreated for 2 hrs followed by aconitine administration measured for 30 mins post-aconitine dose relative to control; format: functional; design: scale not given: the % may be the effect or the level left; details: time 2.5 hrs
# Mus musculus [24] = experiment: Analgesic activity in aconitine-induced nociception in IEM transgenic FVB mouse model assessed as reduction in pain response at 30 mg/kg, po pretreated for 2 hrs followed by aconitine administration measured for 30 mins post-aconitine dose relative to control; format: functional; design: scale not given: the % may be the effect or the level left; details: time 2.5 hrs
# Mus musculus [25] = experiment: Analgesic activity in aconitine-induced nociception in IEM transgenic FVB mouse model assessed as reduction in pain response at 100 mg/kg, po pretreated for 2 hrs followed by aconitine administration measured for 30 mins post-aconitine dose relative to control; format: functional; design: scale not given: the % may be the effect or the level left; details: time 2.5 hrs
# [26] = Drug concentration in plasma of aconitine-induced nociception in IEM transgenic FVB mouse model at 3 mg/kg, po pretreated for 2 hrs followed by aconitine administration measured for 30 mins post-aconitine dose; format: ADME, organism-based
# [27] = Drug concentration in plasma of aconitine-induced nociception in IEM transgenic FVB mouse model at 10 mg/kg, po pretreated for 2 hrs followed by aconitine administration measured for 30 mins post-aconitine dose; format: ADME, organism-based
# [28] = Drug concentration in plasma of aconitine-induced nociception in IEM transgenic FVB mouse model at 30 mg/kg, po pretreated for 2 hrs followed by aconitine administration measured for 30 mins post-aconitine dose; format: ADME, organism-based
# [29] = Drug concentration in plasma of aconitine-induced nociception in IEM transgenic FVB mouse model at 100 mg/kg, po pretreated for 2 hrs followed by aconitine administration measured for 30 mins post-aconitine dose; format: ADME, organism-based
# Mus musculus [30] = experiment: Analgesic activity in aconitine-induced nociception in IEM transgenic FVB mouse model assessed as inhibition of nociceptive behaviour at 3 to 100 mg/kg, po pretreated for 2 hrs followed by aconitine administration measured for 30 mins post-aconitine dose; format: functional, organism-based
# [31] = Drug concentration in brain of aconitine-induced nociception in IEM transgenic FVB mouse model at EC50 pretreated orally for 2 hrs followed by aconitine administration measured for 30 mins post-aconitine dose; format: ADME, tissue-based; details: route po, read-out: Ct
# [32] = Ratio of drug concentration in brain to plasma of aconitine-induced nociception in IEM transgenic FVB mouse model at EC50 pretreated orally for 2 hrs followed by aconitine administration measured for 30 mins post-aconitine dose; format: ADME; details: route po, read-out: BPR
# [33] = molecular target: T1, Sodium channel protein type 9 subunit alpha; experiment: Inhibition of human Nav1.7 assessed as fold shift in IC50 in presence of BSA by sodium flux assay
# Target sequence in this assay (Q15858 whole entry, looked up): as the sequence (Q15858 whole entry) above
smiles,measurement,setting,value
O=C(O)[C@@H]1C[C@@H](O)CN1C(=O)c1cc(C2CC2)c(OCC23CC4CC(CC(C4)C2)C3)cc1F,Ki,[1],0.39 µM
O=C(O)[C@@H]1[C@H](O)CCN1C(=O)c1cc(C2CC2)c(OCC23CC4CC(CC(C4)C2)C3)cc1F,Ki,[1],0.16 µM
N#C[C@H]1C[C@@H](C(=O)O)N(C(=O)c2cc(C3CC3)c(OCC34CC5CC(CC(C5)C3)C4)cc2F)C1,Ki,[1],0.87 µM
O=C(O)[C@@H]1C[C@@H](F)CN1C(=O)c1cc(C2CC2)c(OCC23CC4CC(CC(C4)C2)C3)cc1F,Ki,[1],0.007 µM
C[C@@H]1[C@@H](C(=O)O)[C@H](C(=O)c2cc(C3CC3)c(OCC3CCN(Cc4c(Cl)cccc4Cl)CC3)cc2F)C[C@@H]1F,Ki,[1],0.0049 µM
same,IC50,[2],0.013 µM
same,IC50,[3],5.9 µM
same,IC50,[4],0.099 µM
same,CLhep predicted,[5],11 mL/min/kg
same,CLhep predicted,[6],51 mL/min/kg
same,AUC,"[7]; po, 3 mg/kg",9.6 µM·h
same,IC50,[8],0.025 µM
same,IC50,[9],0.015 µM
same,IC50,[10],0.3 µM
same,CLhep predicted,[11],6.2 mL/min/kg
same,CLhep predicted,[12],21 mL/min/kg
same,Papp A→B,[13],19 ×10⁻⁶ cm/s
same,efflux ratio,MDR1 (P-gp),2.8
same,efflux ratio,BCRP,0.92
same,fraction unbound,[14],0.0001
same,fraction unbound,[15],0.0001
same,IC50,Cytochrome P450 1A2,> 10 µM
same,IC50,Cytochrome P450 2C19,> 10 µM
same,IC50,Cytochrome P450 2C9,> 10 µM
same,IC50,Cytochrome P450 2D6,> 10 µM
same,IC50,Cytochrome P450 3A4,> 10 µM
same,solubility kinetic,[16],58 µM
same,Vd,[17],0.94 L/kg
same,half-life,[18],1.2 h
same,Cmax,[19],1.5 µM
same,half-life,[20],3.6 h
same,F,[21],45%
same,Activity,Mus musculus [22],35%
same,Activity,Mus musculus [23],81%
same,Activity,Mus musculus [24],96%
same,Activity,Mus musculus [25],100%
same,concentration at 2.5 h,[26],1.77 µM
same,concentration at 2.5 h,[27],7.29 µM
same,concentration at 2.5 h,[28],20.8 µM
same,concentration at 2.5 h,[29],50.9 µM
same,EC50,Mus musculus [30],2.72 µM
same,concentration at 2.5 h,[31],0.33 µM
same,Kp at 2.5 h,[32],~0.12
N#C[C@@H]1C[C@@H](C(=O)O)N(C(=O)c2cc(C3CC3)c(OCC34CC5CC(CC(C5)C3)C4)cc2F)C1,Ki,[1],0.12 µM
O=C(c1cc(C2CC2)c(OCC23CC4CC(CC(C4)C2)C3)cc1F)C1CCC[C@H]1C(=O)O (some centres undefined),Ki,[1],0.0086 µM
same,IC50,[2],0.012 µM
same,IC50,[3],2.6 µM
same,IC50,[4],0.25 µM
same,fold change (FC),[33],1.5
same,CLhep predicted,[5],17 mL/min/kg
same,CLhep predicted,[6],61 mL/min/kg
same,AUC,[7]; read-out: AUC,0.53 µM·h
C[C@@H]1[C@H](F)CN(C(=O)c2cc(C3CC3)c(OCC34CC5CC(CC(C5)C3)C4)cc2F)[C@@H]1C(=O)O,Ki,[1],0.22 µM
C[C@@]1(C(=O)O)CCCN1C(=O)c1cc(C2CC2)c(OCC23CC4CC(CC(C4)C2)C3)cc1F,Ki,[1],0.1 µM
O=C(O)[C@@H]1CCCN1C(=O)c1cc(C2CC2)c(OCC23CC4CC(CC(C4)C2)C3)cc1F,Ki,[1],0.02 µM
same,IC50,[2],0.033 µM
same,IC50,[4],0.18 µM
same,fold change (FC),[33],2.2
same,CLhep predicted,[5],11 mL/min/kg
same,CLhep predicted,[6],61 mL/min/kg
same,AUC,[7]; read-out: AUC,0.079 µM·h
CC1(C)CCN(C(=O)c2cc(C3CC3)c(OCC34CC5CC(CC(C5)C3)C4)cc2F)[C@@H]1C(=O)O,Ki,[1],0.058 µM
CO[C@@H]1CN(C(=O)c2cc(C3CC3)c(OCC34CC5CC(CC(C5)C3)C4)cc2F)[C@H](C(=O)O)[C@H]1C,Ki,[1],0.036 µM
O=C(O)[C@@H]1[C@H](F)CCN1C(=O)c1cc(C2CC2)c(OCC23CC4CC(CC(C4)C2)C3)cc1F,Ki,[1],0.17 µM
